Substitutions are numbered along the chain they refer to. pIC50, pKd: −log10 of the molar value. Read-outs that look alike come from different tables or passages of the source. Values belong to the compound of their own block, whether it stands above or below them.
Experiments:
human FAAH [1] = target: T1, human FAAH (Homo sapiens, UniProt O00519); assay: [3H]-anandamide (AEA) hydrolysis by FAAH microsomes; format: biochemical
T1 construct: His6; made in house; host or cells: CHO cells, stably transfected; microsomal fraction used
T1 sequence (O00519 1-579): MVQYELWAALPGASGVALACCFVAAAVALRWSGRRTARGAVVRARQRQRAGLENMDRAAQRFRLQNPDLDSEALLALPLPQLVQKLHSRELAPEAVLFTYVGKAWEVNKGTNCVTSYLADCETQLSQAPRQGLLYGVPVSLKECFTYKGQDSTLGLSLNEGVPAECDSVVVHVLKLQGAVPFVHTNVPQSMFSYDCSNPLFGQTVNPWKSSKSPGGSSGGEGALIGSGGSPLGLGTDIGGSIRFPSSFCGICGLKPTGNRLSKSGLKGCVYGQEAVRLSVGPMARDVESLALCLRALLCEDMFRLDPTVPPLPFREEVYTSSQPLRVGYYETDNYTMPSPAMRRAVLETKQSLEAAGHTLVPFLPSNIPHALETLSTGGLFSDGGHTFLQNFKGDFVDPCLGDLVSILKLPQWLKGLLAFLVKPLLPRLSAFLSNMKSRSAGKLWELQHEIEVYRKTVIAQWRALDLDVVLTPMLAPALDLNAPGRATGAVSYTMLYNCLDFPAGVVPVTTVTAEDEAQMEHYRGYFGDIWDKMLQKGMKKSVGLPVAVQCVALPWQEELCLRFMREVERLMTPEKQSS
Method: 0.5 μg of human FAAH microsomes were incubated with 1 μM [^3H]-AEA substrate and indicated concentrations of MAEA in assay buffer at room temperature for 2 hours. Released [^3H]-ethanolamine was extracted by chloroform/methanol and counted.
Panel (B) Effect of MAEA on the kinetics of AEA hydrolysis by FAAH-containing microsomes. 0.5 μg of the microsomes comprising FAAH were incubated with the indicated [^3H]-AEA concentrations for 30 minutes with or without 10 μM of MAEA. Released [^3H]-ethanolamine was measured in a scintillation counter.
Microsomes (0.5 μg/assay) prepared from CHO cells expressing human FAAH, were incubated with the indicated concentrations of anandamide (ethanolamine 1-[^3H]) for 30 min at 25° C. in 50 mM HEPES, pH 7.4, 1 mM EDTA and 0.1% BSA. The reaction was terminated by the addition of 2 volumes of chloroform/methanol (1:1, v/v). The samples were vortexed and centrifuged at 1000 g for 3 minutes. The aqueous phase, containing [^3H]-ethanolamine, was collected and measured by liquid scintillation counting. Results are presented as the mean±S.E. of triplicate measurements from at least two independent experiments. The observed rate constants (apparent Km) were calculated using GraphPad Prism 3.02, based on a Michaelis-Menten (one site binding hyperbola) equation Y=BmaxX/[Km+X].
The AEA hydrolysis assays were performed according to the protocols described in Example 1. 0.5 μg of FAAH-containing microsomes per assay were incubated with 8 different concentrations (in a range from 1 μM to 10 μM) of compound in the presence of 1 μM […] in 50 mM HEPES, pH 7.5, 1 mM EDTA, 0.1% BSA at room temperature for 2 hours. ^3H-ethanolamine released from AEA hydrolysis was measured by liquid scintillation counting. Results were analyzed using a sigmoidal dose-response equation by GraphPad Prism 3.02. Numerical results are the mean of triplicate measurements from at least two independent experiments.

human FAAH [2] = target: T1, human FAAH; assay: FAAH SPA binding assay (displacement of [3H]-MAEA from FAAH-containing microsomes); details: for pIC50: 3 hours room temperature
Method: FIG. 3. One embodiment of a FAAH SPA assay. […] The radioactivity was counted on a TopCount™ for one minute per sample. Each point shown is the mean±SD of triplicates from at least two independent experiments.
FIG. 7. Inhibition of the binding of [^3H]-MAEA to FAAH-containing microsomes by FAAH inhibitors in SPA. The assay was carried out by incubating 5 μg of FAAH microsomes with 100 nM [^3H]-MAEA and 0.5 mg of WGA beads in 50 mM HEPES, 1 mM EDTA, pH 7.4, 0.1% BSA, with inhibitors in a 200 μL total reaction volume, at room temperature for 3 hours. The final concentration of DMSO in the assay was 0.5%. IC50 values were calculated by fitting the curve to a non-linear regression equation. Each point is the mean±SD of triplicate data from at least two independent experiments.
The SPA assay consisted of 100 nM [^3H]-MAEA (60 Ci/mmol), […] FAAH microsomes and 0.5 mg PVT-WGA beads in buffer (50 mM HEPES, pH 7.4, 1 mM EDTA and 0.1% BSA). The assays were performed in 96 well plates with a final volume of 200 μL. Components were added to the assay plates, which were agitated on a plate shaker for 3-4 hours at room temperature. The assays were then counted on a TopCount NXT (PerkinElmer, Boston, Mass.) for one minute per well. Results presented are the mean±S. E. of triplicate measurements from at least two independent experiments. The IC50 values were calculated using the GraphPad Prism 3.02 program, based on a sigmoidal dose-response equation. The screening window coefficient (Z′-factor) was calculated according to the following equation as previous described (See Zhang, J. H., T. D. Chung, and K. R. Oldenburg, A simple statistical parameter for use in evaluation and validation of high throughput screening assays, J Biomol Screen, 1999, 4: 67-73): Z=1−(3σc++3σc−)/|μc+−μc−| where, σc+ and σc− are standard deviations of positive and negative controls and μc+ and μc− are means of positive and negative controls respectively.
Assays were performed by incubating 0.5 mg of PVT-WGA beads, 100 nM [3H]-MAEA, and 5 μg of FAAH-containing microsomes. Assays were incubated in the wells of 96-well plates.

FAAH microsomes = target: T2, FAAH microsomes (Homo sapiens, UniProt O00519); assay: Hydrolysis of [3H]-MAEA by FAAH microsomes; format: biochemical; details: 5 μg FAAH microsomes over 5 hours
T2 construct: His6; made in house; host or cells: CHO cells, stably transfected; microsomal fraction used
T2 sequence (O00519 1-579): T1 sequence (O00519 1-579)
From the text: R(+)-methanandamide (R-(+)-arachidonyl-1-′-hydroxy-2′-propylamide, MAEA) is an anandamide analog with a methyl group at the 1′-position of the ethanolamido head group. […] The effects of MAEA on FAAH-catalyzed anandamide hydrolysis was also examined using FAAH-containing microsomes.

[3] = SPA binding of [3H]-MAEA to microsomes from CHO cells containing only vector; design: species or system Chinese hamster; details: 5 μg microsomes from cells containing only vector
Method: (§1) FIG. 4. […] The relative activity of FAAH-containing microsomes or those prepared from cells expressing FAAH-S241A or vector control was measured by increasing the microsomal protein concentration ranging from 0-10 μg/assay. 100 nM of [^3H]-MAEA and 0.5 mg of WGA SPA beads were incubated with indicated concentrations of microsomes at 25° C. for 3 hours. Radioactivity was measured in a TopCount™. The SPA signal (CPM) was plotted against amount of microsomal protein in the assay. Each point is the mean±SD of triplicate data from at least two independent experiments.
(§2) Cells were collected by centrifugation at 2000 g for 10 minutes at 4° C. in a Sorvall high-speed centrifuge. The cell pellet was then washed 3 times with PBS and resuspended in buffer containing 50 mM HEPES, pH 7.4, 1 mM EDTA, 1 μM pepstatin, 100 μM leupeptin, 0.1 mg/mL aprotinin. The cells were sonicated 5 times for 10 seconds at 15-second intervals and the cell lysate was further centrifuged at 12000 g for 20 minutes at 4° C. The supernatant was centrifuged at 100,000 g for 30 minutes in a SW28 rotor in a Beckman Optima LE-80K centrifuge. The pellet obtained was the microsomal fraction, which was resuspended in ice-cold buffer. Protein concentration was measured by the BCA method (Pierce) and the microsomal suspension adjusted to 1 mg/mL and stored in aliquots at −80° C. until use. […]

inactive FAAH-S241A = target: T3, inactive FAAH-S241A (Homo sapiens, UniProt O00519, S241A); assay: SPA binding of [3H]-MAEA to microsomes with inactive FAAH-S241A mutant; details: 5 μg microsomes containing inactive FAAH-S241A
T3 construct: His6; made in house; host or cells: CHO cells, stably transfected; microsomal fraction used
T3 sequence (O00519 1-579 S241A): T1 sequence (O00519 1-579) with S241A
Method: as §1, §2

[4] = 5 μg FAAH microsomes, 100 nM [3H]-MAEA, 0.5 mg WGA beads
[5] = 0.5 μg FAAH-containing microsomes, 1 μM radiolabelled substrate, room temperature 2 hours, read-out: AEA hydrolysis (IC50)

Compound: CCCCC/C=C\C/C=C\C/C=C\C/C=C\CCCC(=O)NCCO [AEA, arachidonyl ethanolamide]
- Km (human FAAH [1]; FAAH-containing microsomes, without MAEA, read-out: apparent Km for AEA (no inhibitor)): 9.1 µM

- pIC50 (human FAAH [2]; [4]): 8.51
- pIC50 (human FAAH [1]; [5]): 8.64
Compound: CCCCCCCCCCCC(=O)c1nc2ncccc2o1 [CAY-10400]

Compound: CCCCC/C=C\C/C=C\C/C=C\C/C=C\CCCC(=O)N[C@H](C)CO [MAEA, R-(+)-arachidonyl-1-′-hydroxy-2′-propylamide]
- [3H]-MAEA degraded (FAAH microsomes): less than 1.5%
- pKd (human FAAH [2]; 2 μg FAAH microsomes, 0.5 mg PVT-WGA beads, estimated, read-out: Kd of specific binding to FAAH microsomes): 4.60
- specific binding of [3H]-MAEA to microsomes (human FAAH [2]; 5 μg microsomes containing FAAH): 90%
- total [3H]-MAEA bound to FAAH microsomes (human FAAH [2]; 5 μg microsomes, 100 nM [3H]-MAEA, 0.5 mg WGA beads): ~92%
- specific binding of [3H]-MAEA to microsomes [3]: 6.1%
- specific binding of [3H]-MAEA to microsomes (inactive FAAH-S241A): 6.5%
- pIC50 (human FAAH [1]; 0.5 μg human FAAH microsomes, 1 μM [3H]-AEA, 2 hours, read-out: IC50 of inhibition of FAAH-catalyzed anandamide hydrolysis): 5.13
- mode of inhibition (Lineweaver-Burk plot) (human FAAH [1]; 10 μM MAEA): competitive FAAH inhibitor
- Vmax of AEA hydrolysis in the presence of the compound (human FAAH [1]; MAEA at 10 μM, 30 minutes): 25.82 nmol/min/mg protein
- Km (human FAAH [1]; MAEA at 10 μM, 30 minutes, read-out: apparent Km for AEA in the presence of the compound): 62.3 µM

Compound: NC(=O)c1cccc(-c2cccc(OC(=O)NC3CCCCC3)c2)c1 [URB-597]
- SPA counts in the presence of inhibitor (human FAAH [2]; URB-597 1 μM, 5 μg FAAH microsomes, 100 nM [3H]-MAEA, 160 cpm without inhibitor): 1932 cpm
- effect on the interaction of [3H]-MAEA and the WGA beads (human FAAH [2]; same concentration of URB-597 (1 μM), no microsomes): no effect

- pIC50 (human FAAH [2]; [4]): 7.06
- pIC50 (human FAAH [1]; [5]): 8.00
Compound: Arachidonoyl trifluoromethyl ketone [ATFK]

— US20070154990A1, “Assays for identifying inhibitors of fatty acid amide hydrolase” (priority 2005, published 2007)
